Data reported in ChEMBL document CHEMBL1139497, “The effects of conformational constraints and steric bulk in the amino acid moiety of philanthotoxins on AMPAR antagonism” (J Med Chem, 2005).

Key:
[1] = target: Glutamate receptor ionotropic, AMPA (Rattus norvegicus, UniProt P19491+P19492+P19493+P19490); experiment: Inhibition of kainate-induced currents of rat ionotropic glutamate receptor AMPA expressed in Xenopus laevis oocytes; not active; type: cell-based; details: oocyte
[2] = target: Glutamate receptor ionotropic, AMPA (Rattus norvegicus, UniProt P19490+P19491+P19492+P19493); experiment: Inhibition of kainate-induced currents of rat ionotropic glutamate receptor AMPA expressed in Xenopus laevis oocytes; type: cell-based, Oocyte

Glutamate receptor ionotropic, AMPA (Rattus norvegicus, UniProt P19491+P19492+P19493+P19490), sequence (P19491 whole entry): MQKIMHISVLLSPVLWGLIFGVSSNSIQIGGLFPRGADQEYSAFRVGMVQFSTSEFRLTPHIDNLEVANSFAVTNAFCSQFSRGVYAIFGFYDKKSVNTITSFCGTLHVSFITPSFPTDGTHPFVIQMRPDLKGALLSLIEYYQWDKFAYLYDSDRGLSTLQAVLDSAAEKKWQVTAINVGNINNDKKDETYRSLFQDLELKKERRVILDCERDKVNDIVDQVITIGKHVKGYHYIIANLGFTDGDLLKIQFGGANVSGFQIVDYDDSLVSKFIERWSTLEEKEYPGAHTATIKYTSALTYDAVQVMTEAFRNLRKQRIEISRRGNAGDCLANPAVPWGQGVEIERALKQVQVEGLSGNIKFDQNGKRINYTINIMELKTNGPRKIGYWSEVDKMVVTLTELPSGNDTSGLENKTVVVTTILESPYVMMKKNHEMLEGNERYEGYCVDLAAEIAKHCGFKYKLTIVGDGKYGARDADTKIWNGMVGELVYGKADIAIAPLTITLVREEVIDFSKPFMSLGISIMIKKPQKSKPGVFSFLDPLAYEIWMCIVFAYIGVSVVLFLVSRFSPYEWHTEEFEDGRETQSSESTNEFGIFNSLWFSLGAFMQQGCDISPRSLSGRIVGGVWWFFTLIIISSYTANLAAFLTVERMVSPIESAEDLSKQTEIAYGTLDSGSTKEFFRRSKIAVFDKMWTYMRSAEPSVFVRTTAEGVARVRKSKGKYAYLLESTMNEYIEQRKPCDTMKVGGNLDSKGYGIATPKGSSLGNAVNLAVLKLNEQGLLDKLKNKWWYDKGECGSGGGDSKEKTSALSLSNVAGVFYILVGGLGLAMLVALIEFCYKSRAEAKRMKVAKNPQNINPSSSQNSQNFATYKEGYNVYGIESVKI
Glutamate receptor ionotropic, AMPA (Rattus norvegicus, UniProt P19491+P19492+P19493+P19490), sequence (P19492 whole entry): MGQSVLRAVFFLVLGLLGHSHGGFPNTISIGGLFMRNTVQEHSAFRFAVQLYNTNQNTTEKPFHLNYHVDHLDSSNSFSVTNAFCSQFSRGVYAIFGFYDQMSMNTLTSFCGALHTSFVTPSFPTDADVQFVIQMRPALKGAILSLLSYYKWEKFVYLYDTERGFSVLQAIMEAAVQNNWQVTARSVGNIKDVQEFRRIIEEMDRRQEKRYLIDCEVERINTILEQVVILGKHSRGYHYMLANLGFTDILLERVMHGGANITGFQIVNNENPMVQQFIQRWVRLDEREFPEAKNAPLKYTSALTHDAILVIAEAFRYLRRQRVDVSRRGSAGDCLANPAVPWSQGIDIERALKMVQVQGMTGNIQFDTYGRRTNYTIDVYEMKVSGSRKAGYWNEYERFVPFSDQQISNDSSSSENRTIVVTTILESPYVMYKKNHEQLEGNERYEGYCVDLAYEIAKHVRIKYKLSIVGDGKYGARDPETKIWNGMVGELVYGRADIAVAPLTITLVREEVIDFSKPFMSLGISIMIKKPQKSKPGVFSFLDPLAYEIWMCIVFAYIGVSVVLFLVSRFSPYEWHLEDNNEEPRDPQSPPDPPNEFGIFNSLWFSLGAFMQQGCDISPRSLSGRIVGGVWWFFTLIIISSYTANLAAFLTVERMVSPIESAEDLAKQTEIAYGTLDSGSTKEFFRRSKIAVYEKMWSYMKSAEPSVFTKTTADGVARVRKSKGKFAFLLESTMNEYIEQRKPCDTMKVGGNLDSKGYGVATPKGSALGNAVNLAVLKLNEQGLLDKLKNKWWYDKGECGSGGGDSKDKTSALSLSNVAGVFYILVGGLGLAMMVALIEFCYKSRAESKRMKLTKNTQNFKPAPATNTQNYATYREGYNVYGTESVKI
Glutamate receptor ionotropic, AMPA (Rattus norvegicus, UniProt P19491+P19492+P19493+P19490), sequence (P19493 whole entry): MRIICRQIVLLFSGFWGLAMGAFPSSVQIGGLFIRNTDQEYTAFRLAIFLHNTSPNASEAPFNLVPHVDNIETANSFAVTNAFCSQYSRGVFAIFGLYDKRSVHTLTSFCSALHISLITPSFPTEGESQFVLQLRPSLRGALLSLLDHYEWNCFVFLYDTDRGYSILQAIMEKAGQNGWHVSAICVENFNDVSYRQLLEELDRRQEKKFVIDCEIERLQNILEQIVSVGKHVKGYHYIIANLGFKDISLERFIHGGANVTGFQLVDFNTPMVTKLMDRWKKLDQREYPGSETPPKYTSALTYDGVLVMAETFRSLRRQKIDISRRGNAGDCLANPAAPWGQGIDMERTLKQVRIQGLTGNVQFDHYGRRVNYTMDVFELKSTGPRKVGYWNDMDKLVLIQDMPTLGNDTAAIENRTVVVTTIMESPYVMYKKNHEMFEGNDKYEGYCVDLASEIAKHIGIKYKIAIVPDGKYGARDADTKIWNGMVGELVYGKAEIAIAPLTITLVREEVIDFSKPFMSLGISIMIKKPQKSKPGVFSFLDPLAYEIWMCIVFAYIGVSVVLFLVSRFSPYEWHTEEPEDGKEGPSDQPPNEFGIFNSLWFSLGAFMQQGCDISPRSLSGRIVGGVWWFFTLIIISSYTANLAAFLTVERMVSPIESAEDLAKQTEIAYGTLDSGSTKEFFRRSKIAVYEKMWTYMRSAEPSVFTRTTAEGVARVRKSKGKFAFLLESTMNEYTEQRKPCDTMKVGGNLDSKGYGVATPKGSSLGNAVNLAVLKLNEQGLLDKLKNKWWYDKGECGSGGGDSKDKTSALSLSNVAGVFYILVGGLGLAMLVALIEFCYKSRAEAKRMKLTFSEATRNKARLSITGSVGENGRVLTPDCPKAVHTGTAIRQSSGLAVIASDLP
Glutamate receptor ionotropic, AMPA (Rattus norvegicus, UniProt P19491+P19492+P19493+P19490), sequence (P19490 whole entry): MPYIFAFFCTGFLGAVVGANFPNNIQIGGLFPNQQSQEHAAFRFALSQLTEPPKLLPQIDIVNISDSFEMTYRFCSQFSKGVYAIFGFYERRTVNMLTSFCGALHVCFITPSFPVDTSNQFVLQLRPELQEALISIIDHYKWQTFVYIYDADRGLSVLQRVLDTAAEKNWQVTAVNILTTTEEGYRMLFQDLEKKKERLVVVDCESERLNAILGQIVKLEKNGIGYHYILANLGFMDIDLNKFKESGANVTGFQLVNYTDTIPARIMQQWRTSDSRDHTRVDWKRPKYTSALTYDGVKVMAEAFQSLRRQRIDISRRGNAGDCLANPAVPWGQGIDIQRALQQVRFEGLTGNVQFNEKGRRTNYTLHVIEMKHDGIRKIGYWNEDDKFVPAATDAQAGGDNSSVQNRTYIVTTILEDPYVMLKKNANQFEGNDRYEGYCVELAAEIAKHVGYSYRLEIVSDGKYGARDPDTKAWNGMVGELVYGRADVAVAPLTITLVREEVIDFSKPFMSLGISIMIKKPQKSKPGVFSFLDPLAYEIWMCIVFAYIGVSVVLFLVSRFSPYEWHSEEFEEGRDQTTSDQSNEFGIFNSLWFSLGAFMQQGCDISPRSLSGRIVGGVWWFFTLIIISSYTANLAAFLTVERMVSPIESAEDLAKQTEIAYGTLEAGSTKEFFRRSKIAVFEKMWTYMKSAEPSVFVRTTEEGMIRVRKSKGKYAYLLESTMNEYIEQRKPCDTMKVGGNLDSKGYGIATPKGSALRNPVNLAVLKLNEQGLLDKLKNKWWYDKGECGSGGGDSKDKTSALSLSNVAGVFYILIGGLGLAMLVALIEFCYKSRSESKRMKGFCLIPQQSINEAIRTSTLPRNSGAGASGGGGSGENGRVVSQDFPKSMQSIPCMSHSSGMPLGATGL

| IC50 [1] | SMILES | IC50 [2] [nM] |
| --- | --- | --- |
| Not Active | NCCCNCCCCNCCCNC(=O)c1cc2ccccc2[nH]1 |  |
|  | CCCC(=O)N[C@@H](Cc1c[nH]c2ccccc12)C(=O)NCCCNCCCCNCCCN | 300 |
|  | CCCC(=O)N[C@@H](Cc1ccc2ccccc2c1)C(=O)NCCCNCCCCNCCCN | 100 |
|  | CCCC(=O)N1Cc2ccc(O)cc2CC1C(=O)NCCCNCCCCNCCCN (stereo not drawn) | 220 |
|  | CCCC(=O)N1C[C@H](OCc2ccccc2)C[C@H]1C(=O)NCCCNCCCCNCCCN | 260 |
|  | CCCC(=O)NC1(C(=O)NCCCNCCCCNCCCN)CCc2ccccc2C1 (stereo not drawn) | 250 |
|  | CCCC(=O)N[C@@H](Cc1ccc(-c2ccccc2)cc1)C(=O)NCCCNCCCCNCCCN | 80 |
|  | CCCC(=O)N1CCC(C(=O)NCCCNCCCCNCCCN)(c2ccccc2)CC1 | 1320 |
|  | CCCC(=O)N[C@H](Cc1ccc(O)cc1)C(=O)NCCCNCCCCNCCCN | 70 |
|  | CCCC(=O)N1c2ccccc2CC1C(=O)NCCCNCCCCNCCCN (stereo not drawn) | 1390 |
|  | CCCC(=O)NC1(C(=O)NCCCNCCCCNCCCN)Cc2ccccc2C1 | 190 |
|  | CCCC(=O)N[C@H](C(=O)NCCCNCCCCNCCCN)C(c1ccccc1)c1ccccc1 | 300 |
|  | CCCC(=O)N1C[C@@H](Oc2ccc3ccccc3c2)C[C@H]1C(=O)NCCCNCCCCNCCCN | 1040 |
|  | CCCC(=O)N1Cc2ccccc2C[C@H]1C(=O)NCCCNCCCCNCCCN | 370 |
|  | CCCC(=O)N[C@H](C(=O)NCCCNCCCCNCCCN)c1ccccc1 | 320 |
|  | CCCC(=O)N[C@@H](CCc1ccccc1)C(=O)NCCCNCCCCNCCCN | 170 |
|  | CCCC(=O)N[C@@H](Cc1ccccc1)C(=O)NCCCNCCCCNCCCN | 430 |
|  | CCCC(=O)N[C@@H](Cc1ccc(O)cc1)C(=O)NCCCNCCCCNCCCN [PHILANTHOTOXIN 343] | 130 |
